# Experimental data: patent publication US9914730B2, “Azaquinazoline inhibitors of Atypical protein Kinase C” (Ignyta, Inc., priority 2012, dated 2018)
# Structures can show the parent of a compound that is named as a salt.
# Biological target: T1, full-length human PKCι (Homo sapiens, UniProt P41743)
# T1 construct: Recombinant, full-length human PKCι expressed in Sf21 insect cells is also commercially available; purchased; host or cells: Sf21 insect cells
# T1 sequence (P41743 1-596): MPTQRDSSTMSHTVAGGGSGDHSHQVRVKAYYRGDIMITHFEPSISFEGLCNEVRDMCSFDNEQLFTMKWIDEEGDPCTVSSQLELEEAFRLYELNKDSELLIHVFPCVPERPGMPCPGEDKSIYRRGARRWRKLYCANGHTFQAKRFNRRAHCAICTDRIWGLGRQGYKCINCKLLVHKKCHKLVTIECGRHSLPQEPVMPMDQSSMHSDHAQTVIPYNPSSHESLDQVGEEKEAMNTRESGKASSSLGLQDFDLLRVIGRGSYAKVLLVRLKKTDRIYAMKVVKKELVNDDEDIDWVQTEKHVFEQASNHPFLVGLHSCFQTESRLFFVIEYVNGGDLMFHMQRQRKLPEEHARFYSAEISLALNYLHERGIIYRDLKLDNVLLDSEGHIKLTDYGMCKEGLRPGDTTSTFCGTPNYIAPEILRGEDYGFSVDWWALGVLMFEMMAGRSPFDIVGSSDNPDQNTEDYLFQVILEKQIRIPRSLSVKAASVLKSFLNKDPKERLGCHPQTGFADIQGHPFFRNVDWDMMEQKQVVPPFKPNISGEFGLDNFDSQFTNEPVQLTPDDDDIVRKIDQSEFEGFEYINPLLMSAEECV
# Assay: PKCι IC50 IMAP assay, full-length PKCι at 150 μM ATP
# Type: biochemical
# Conditions: read-out: IC50 in IMAP assay against full length PKCi at 150 μM ATP
# Outline: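 IMAP fluorescence polarisation (ex 485/em 530 nm) read-out; % inhibition set from no-compound (0%) and no-enzyme (100%) controls, IC50 from dose-response curve fit. Sf21-expressed full-length enzyme ~15 pM, 100 nM FAM peptide, ATP 150 μM (5× KM^APP), 60 min at RT.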
row,Structure (SMILES),IC50 [nM]
1,"CC(C)(C)c1cc2c(-c3nc(N4CCNCC4)c4c(C5CC5)cnc(C5CC5)c4n3)ccnc2[nH]1 [Example 2190, 2-(2-tert-Butyl-1H-pyrrolo[2,3-b]pyridin-4-yl)-5,8-dicyclopropyl-4-piperazin-1-yl-pyrido[3,4-d]pyrimidine]",< 100
2,"FC(F)(F)Cn1cc(Cl)c(Nc2cc(-c3nc(N4CCNCC4)c4c(C5CC5)cncc4n3)ccn2)n1 [Example 2030, [4-Chloro-1-(2,2,2-trifluoro-ethyl)-1H-pyrazol-3-yl]-[4-(5-cyclopropyl-4-piperazin-1-yl-pyrido[3,4-d]pyrimidin-2-yl)-pyridin-2-yl]-amine]",< 100
3,"Fc1cc(C2CC2)nc(F)c1Nc1cc(-c2nc(N3CCNCC3)c3c(C4CC4)cncc3n2)ccn1 [Example 724, (6-Cyclopropyl-2,4-difluoro-pyridin-3-yl)-[4-(5-cyclopropyl-4-piperazin-1-yl-pyrido[3,4-d]pyrimidin-2-yl)-pyridin-2-yl]-amine; bis-trifluoroacetic salt]",< 100
4,"OC1CCN(c2nc(-c3ccnc(Nc4cnn(CC5CCNCC5)c4)c3)nc3cncc(C4CC4)c23)CC1 [Example 732, 1-{5-Cyclopropyl-2-[2-(1-piperidin-4-ylmethyl-1H-pyrazol-4-ylamino)-pyridin-4-yl]-pyrido[3,4-d]pyrimidin-4-yl}-piperidin-4-ol]",< 100
5,"COc1cncc2nc(-c3ccncc3)nc(N3CCN4C(=O)OC[C@H]4C3)c12 [Example 86, (3aR)-5-[5-methoxy-2-(pyridin-4-yl)pyrido[3,4-d]pyrimidin-4-yl]-hexahydro-1H-[1,3]oxazolo[3,4-a]piperazin-1-one]",1000 to 10000
6,"Fc1c(-c2nc(N3CCNCC3)c3c(C4CC4)cncc3n2)ccnc1Nc1ccccc1 [Example 701, [4-(5-Cyclopropyl-4-piperazin-1-yl-pyrido[3,4-d]pyrimidin-2-yl)-3-fluoro-pyridin-2-yl]-phenyl-amine]",10000 to 40000
7,"CC(C)(C)Nc1cc(-c2nc(N3CCNCC3)c3c(C4CC4)cncc3n2)ccn1 [Example 520, tert-Butyl-[4-(5-cyclopropyl-4-piperazin-1-yl-pyrido[3,4-d]pyrimidin-2-yl)-pyridin-2-yl]-amine]",< 100
8,"FC(F)(F)c1ccccc1Nc1cc(-c2nc(N3CCNCC3)c3c(C4CC4)cncc3n2)ccn1 [Example 516, [4-(5-Cyclopropyl-4-piperazin-1-yl-pyrido[3,4-d]pyrimidin-2-yl)-pyridin-2-yl]-(2-trifluoromethyl-phenyl)-amine]",< 100
9,"c1cc(-c2nc(N3CCN4CCC[C@@H]4C3)c3ccncc3n2)ccn1 [Example 64, 4-{4-[(8aR)-octahydropyrrolo-[1,2-a]piperazin-2-yl]pyrido[3,4-d]-pyrimidin-2-yl}-pyridine]",10000 to 40000
10,"COc1cncc2nc(-c3ccncc3)nc(N3CCN[C@@H](CO)C3)c12 [Example 46, [(2R)-4-[5-methoxy-2-(pyridin-4-yl)-pyrido[3,4-d]-pyrimidin-4-yl]-piperazin-2-yl]-methanol]",< 100
11,"COc1cncc2nc(-c3ccnc(Nc4cncnc4)c3)nc(N3CCNCC3)c12 [Example 386, [4-(5-Methoxy-4-piperazin-1-yl-pyrido[3,4-d]pyrimidin-2-yl)-pyridin-2-yl]-pyrimidin-5-yl-amine]",100 to 1000
12,"COc1cncc2nc(-c3ccnc(NC(=O)Cc4ccc(C#N)cc4)c3)nc(N3CCNCC3)c12 [Example 355, 2-(4-Cyano-phenyl)-N-[4-(5-methoxy-4-piperazin-1-yl-pyrido[3,4-d]pyrimidin-2-yl)-pyridin-2-yl]-acetamide]",< 100
13,"Fc1cccc(F)c1Nc1cc(-c2nc(OC3CCNCC3)c3c(C4CC4)cncc3n2)ccn1 [Example 757, {4-[5-Cyclopropyl-4-(piperidin-4-yloxy)-pyrido[3,4-d]pyrimidin-2-yl]-pyridin-2-yl}-(2,6-difluoro-phenyl)-amine]",100 to 1000
14,"CN(C)c1ncc(Cl)c2c(N3CCNCC3)nc(-c3ccncc3)nc12 [Example 142, 5-chloro-N,N-dimethyl-4-(piperazin-1-yl)-2-(pyridin-4-yl)pyrido[3,4-d]pyrimidin-8-amine]",1000 to 10000
15,"c1cc(-c2nc(N3CCNCC3)c3c(C4CC4)cncc3n2)cc(NC2CCOCC2)n1 [Example 283, [4-(5-Cyclopropyl-4-piperazin-1-yl-pyrido[3,4-d]pyrimidin-2-yl)-pyridin-2-yl]-(tetrahydro-pyran-4-yl)-amine]",< 100
16,"COc1cncc2nc(-c3ccnc(Nc4ccccc4)c3)nc(NC[C@H]3CCCN3)c12 [Example 431, [5-Methoxy-2-(2-phenylamino-pyridin-4-yl)-pyrido[3,4-d]pyrimidin-4-yl]-(R)-1-pyrrolidin-2-ylmethyl-amine]",100 to 1000

row,Structure (SMILES),IC50 [nM]
1,"c1ccc(C[C@H]2CNCCN2c2nc(-c3ccncc3)nc3cnccc23)cc1 [Example 38, (2S)-2-benzyl-1-[2-(pyridin-4-yl)-pyrido[3,4-d]-pyrimidin-4-yl]-piperazine]",100 to 1000
2,"COc1cncc2nc(N3CCOCC3)nc(N3CCN[C@@H](CO)C3)c12 [Example 1005, [(R)-4-(5-Methoxy-2-morpholin-4-yl-pyrido[3,4-d]pyrimidin-4-yl)-piperazin-2-yl]-methanol]",100 to 1000
3,"N#Cc1ccc(Nc2cc(-c3nc(N4CCNCC4)c4c(C5CC5)cncc4n3)ccn2)cn1 [Example 506, 5-[4-(5-Cyclopropyl-4-piperazin-1-yl-pyrido[3,4-d]pyrimidin-2-yl)-pyridin-2-ylamino]-pyridine-2-carbonitrile]",100 to 1000
4,"COc1cncc2nc(-c3ccnc(Nc4ccc(C)cn4)c3)nc(N3CCNCC3)c12 [Example 364, [4-(5-Methoxy-4-piperazin-1-yl-pyrido[3,4-d]pyrimidin-2-yl)-pyridin-2-yl]-(5-methyl-pyridin-2-yl)-amine]",< 100
5,"CC(C)(C)OC(=O)N1CCN(c2nc(-c3ccncc3)nc3cnccc23)CC1 [Example 22, tert-butyl 4-[2-(pyridin-4-yl)-pyrido[3,4-d]-pyrimidin-4-yl]-piperazine-1-carboxylate]",10000 to 40000
6,"COc1cncc2nc(-c3ccnc(NC(=O)CN4CCOCC4)c3)nc(N3CCNCC3)c12 [Example 209, N-[4-(5-Methoxy-4-piperazin-1-yl-pyrido[3,4-d]pyrimidin-2-yl)-pyridin-2-yl]-2-morpholin-4-yl-acetamide]",100 to 1000
7,"FC(F)(F)c1cc2c(-c3nc(NC4CCNCC4)c4c(C5CC5)cncc4n3)ccnc2[nH]1 [Example 2068, [5-Cyclopropyl-2-(2-trifluoromethyl-1H-pyrrolo[2,3-b]pyridin-4-yl)-pyrido[3,4-d]pyrimidin-4-yl]-piperidin-4-yl-amine]",< 100
8,"COCc1cc2c(-c3nc(N4CCNCC4)c4c(C5CC5)cncc4n3)ccnc2[nH]1 [Example 2075, 5-Cyclopropyl-2-(2-methoxymethyl-1H-pyrrolo[2,3-b]pyridin-4-yl)-4-piperazin-1-yl-pyrido[3,4-d]pyrimidine]",< 100
9,"O=C(Nc1cc(-c2nc(N[C@@H]3CCNC3)c3ccncc3n2)ccn1)c1cnccn1 [Example 307, Pyrazine-2-carboxylic acid {4-[4-((R)-pyrrolidin-3-ylamino)-pyrido[3,4-d]pyrimidin-2-yl]-pyridin-2-yl}-amide]",100 to 1000
10,"CC(C)NC(=O)C1CCN(c2nc(-c3ccnc(NC4CCCC4)c3)nc3cncc(C4CC4)c23)CC1 [Example 679, 1-[2-(2-Cyclopentylamino-pyridin-4-yl)-5-cyclopropyl-pyrido[3,4-d]pyrimidin-4-yl]-piperidine-4-carboxylicacid isopropylamide]",1000 to 10000
11,"CC(C)(C)c1cc2c(-c3nc(N4CCNCC4)c4c(C5CC5)cncc4n3)c(Cl)cnc2[nH]1 [Example 1229, 2-(2-tert-Butyl-5-chloro-1H-pyrrolo[2,3-b]pyridin-4-yl)-5-cyclopropyl-4-piperazin-1-yl-pyrido[3,4-d]pyrimidine]",< 100
12,"FC(F)(F)[C@H]1CN(c2nc(-c3ccnc(Cl)c3)nc3cncc(C4CC4)c23)CCN1 [Example 660, 2-(2-Chloro-pyridin-4-yl)-5-cyclopropyl-4-((R)-3-trifluoromethyl-piperazin-1-yl)-pyrido[3,4-d]pyrimidine]",10000 to 40000
13,"N#Cc1ccc(Nc2cc(-c3nc(N[C@@H]4CCNC4)c4ccncc4n3)ccn2)nc1 [Example 341, 6-{4-[4-((R)-Pyrrolidin-3-ylamino)-pyrido[3,4-d]pyrimidin-2-yl]-pyridin-2-ylamino}-nicotinonitrile]",< 100
14,"COc1cncc2nc(-c3ccnc(Nc4ccccc4)c3)nc(N[C@@H]3CCNC3)c12 [Example 238, [5-Methoxy-2-(2-phenylamino-pyridin-4-yl)-pyrido[3,4-d]pyrimidin-4-yl]-(R)-pyrrolidin-3-yl-amine]",< 100
15,"FC(F)(F)[C@H]1CN(c2nc(-c3ccnc4[nH]ccc34)nc3cncc(C4CC4)c23)CCN1 [Example 1213, 5-Cyclopropyl-2-(1H-pyrrolo[2,3-b]pyridin-4-yl)-4-((R)-3-trifluoromethyl-piperazin-1-yl)-pyrido[3,4-d]pyrimidine]",< 100
